Test results taken from patent US10752615B2, “Spirocyclic containing compounds and pharmaceutical uses thereof” (GB005, Inc., priority 2016, dated 2020).

Legend:
TXK = TXK (Homo sapiens (Human), UniProt P42681); assay: Kinase inhibition assay (Nanosyn, microfluidic detection), TXK; type: biochemical; conditions: 1 mM ATP, 3 hours at 25° C.
Procedure: The in vitro kinase assays were performed at Nanosyn (Santa Clara, Calif.) utilizing microfluidic detection technology. The test compounds were serially pre-diluted in DMSO and added, by the acoustic dispensing (Labcyte® 550), directly to 384 well assay plates into 10 uL of a buffer with enzyme (ITK, TXK, BTK or TEC) comprising: 100 mM HEPES, pH7.5, 5 mM MgCl2, 0.1% bovine serum albumin, 1 mM DTT, 0.01% Triton X-100 and the enzyme. Final DMSO concentration was maintained at 1% in all samples, including the controls. The reactions were initiated by addition of ATP (1 mM final concentration) and the fluorescently labeled peptide substrate to a final concentration of 1 uM, and incubated for 3 hours at 25° C. Following incubation, the reactions were quenched by addition of 40 μL of termination buffer (100 mM HEPES, pH7.5, 0.01% Triton X-100, 50 mM EDTA). Terminated plates were analyzed using Caliper LabChip® 3000 microfluidic electrophoresis instrument (Caliper Life Sciences/Perkin Elmer). […] As substrate and product are separated by electrophoresis, two peaks of fluorescence are observed. Change in the relative fluorescence intensity of the substrate and product peaks was the parameter measured, reflecting enzyme activity. In the presence of inhibitor, the ratio between product and substrate is altered: signal of the product decreases, while the signal of the substrate increases. Activity in each test sample was determined as the product to sum ratio (PSR): P/(S+P), where P is the peak height of the product and S is the peak height of the […]. For each compound, enzyme activity was measured at 12 concentrations spaced by 3× dilution intervals. Negative control samples (0%-inhibition in the absence of inhibitor, DMSO only) and positive control samples (100%-inhibition, in the absence of enzyme or in the presence of control inhibitor) were assembled in replicates of four and were used to calculate %-inhibition values in the presence of compounds. Percent inhibition (Pinh) was determined using the following equation: Pinh=(PSR0%−PSRinh)/(PSR0%−PSR100%)*100, where PSRinh is the product sum ratio in the presence of inhibitor, PSR0% is the product sum ratio in the absence of inhibitor and PSR100% is the product sum ratio in 100%-inhibition control samples. To determine IC50 values, the inhibition curves (Pinh versus inhibitor concentration) were fitted by 4 parameter sigmoid dose-response model using XLfit software (IDBS).

BTK = BTK (Homo sapiens (Human), UniProt Q06187); assay: Kinase inhibition assay (Nanosyn, microfluidic detection), BTK; type: biochemical; conditions: 1 mM ATP, 3 hours at 25° C.
Procedure: The in vitro kinase assays were performed at Nanosyn (Santa Clara, Calif.) utilizing microfluidic detection technology. The test compounds were serially pre-diluted in DMSO and added, by the acoustic dispensing (Labcyte® 550), directly to 384 well assay plates into 10 uL of a buffer with enzyme (ITK, TXK, BTK or TEC) comprising: 100 mM HEPES, pH7.5, 5 mM MgCl2, 0.1% bovine serum albumin, 1 mM DTT, 0.01% Triton X-100 and the enzyme. Final DMSO concentration was maintained at 1% in all samples, including the controls. The reactions were initiated by addition of ATP (1 mM final concentration) and the fluorescently labeled peptide substrate to a final concentration of 1 uM, and incubated for 3 hours at 25° C. Following incubation, the reactions were quenched by addition of 40 μL of termination buffer (100 mM HEPES, pH7.5, 0.01% Triton X-100, 50 mM EDTA). Terminated plates were analyzed using Caliper LabChip® 3000 microfluidic electrophoresis instrument (Caliper Life Sciences/Perkin Elmer). The enzymatic modification of the peptide substrate (phosphorylation) results in a change of net charge enabling electrophoretic separation of product from substrate. As substrate and product are separated by electrophoresis, two peaks of fluorescence are observed. Change in the relative fluorescence intensity of the substrate and product peaks was the parameter measured, reflecting enzyme activity. In the presence of inhibitor, the ratio between product and substrate is altered: signal of the product decreases, while the signal of the substrate increases. Activity in each test sample was determined as the product to sum ratio (PSR): P/(S+P), where P is the peak height of the product and S is the peak height of the […]. For each compound, enzyme activity was measured at 12 concentrations spaced by 3× dilution intervals. Negative control samples (0%-inhibition in the absence of inhibitor, DMSO only) and positive control samples (100%-inhibition, in the absence of enzyme or in the presence of control inhibitor) were assembled in replicates of four and were used to calculate %-inhibition values in the presence of compounds. Percent inhibition (Pinh) was determined using the following equation: Pinh=(PSR0%−PSRinh)/(PSR0%−PSR100%)*100, where PSRinh is the product sum ratio in the presence of inhibitor, PSR0% is the product sum ratio in the absence of inhibitor and PSR100% is the product sum ratio in 100%-inhibition control samples. To determine IC50 values, the inhibition curves (Pinh versus inhibitor concentration) were fitted by 4 parameter sigmoid dose-response model using XLfit software (IDBS).

Sequence of BTK (Q06187 whole entry): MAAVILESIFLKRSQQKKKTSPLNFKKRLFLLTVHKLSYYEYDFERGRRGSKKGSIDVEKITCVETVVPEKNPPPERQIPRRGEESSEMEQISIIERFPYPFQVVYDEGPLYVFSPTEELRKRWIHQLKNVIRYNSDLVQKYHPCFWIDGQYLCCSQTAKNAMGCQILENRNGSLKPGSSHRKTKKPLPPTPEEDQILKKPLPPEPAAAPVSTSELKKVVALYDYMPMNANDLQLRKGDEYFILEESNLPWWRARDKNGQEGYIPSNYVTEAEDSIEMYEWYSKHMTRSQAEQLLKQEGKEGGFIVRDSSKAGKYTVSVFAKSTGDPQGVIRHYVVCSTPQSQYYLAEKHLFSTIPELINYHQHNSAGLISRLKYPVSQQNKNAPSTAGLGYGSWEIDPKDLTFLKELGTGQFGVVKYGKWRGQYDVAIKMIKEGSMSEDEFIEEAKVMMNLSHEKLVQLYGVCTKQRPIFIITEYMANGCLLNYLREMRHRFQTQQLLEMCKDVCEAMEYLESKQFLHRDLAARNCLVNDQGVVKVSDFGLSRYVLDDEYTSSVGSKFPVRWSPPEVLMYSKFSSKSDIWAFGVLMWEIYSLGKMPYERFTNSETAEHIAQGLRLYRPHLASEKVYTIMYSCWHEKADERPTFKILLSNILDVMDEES
Sequence of TXK (P42681 whole entry): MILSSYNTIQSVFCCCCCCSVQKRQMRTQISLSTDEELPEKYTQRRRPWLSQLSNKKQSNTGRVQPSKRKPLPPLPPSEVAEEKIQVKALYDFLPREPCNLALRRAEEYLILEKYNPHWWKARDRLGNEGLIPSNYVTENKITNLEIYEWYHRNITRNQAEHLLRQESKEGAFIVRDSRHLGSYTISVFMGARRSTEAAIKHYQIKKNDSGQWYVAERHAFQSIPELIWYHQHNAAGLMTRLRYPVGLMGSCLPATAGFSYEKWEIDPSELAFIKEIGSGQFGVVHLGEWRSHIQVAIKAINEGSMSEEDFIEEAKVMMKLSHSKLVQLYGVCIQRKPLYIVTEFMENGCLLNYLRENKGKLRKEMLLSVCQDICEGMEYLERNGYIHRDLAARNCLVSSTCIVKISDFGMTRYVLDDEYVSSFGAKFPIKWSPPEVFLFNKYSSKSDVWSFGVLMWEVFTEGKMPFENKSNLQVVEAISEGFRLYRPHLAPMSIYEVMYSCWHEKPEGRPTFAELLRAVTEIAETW

| SMILES | IC50 (TXK) [nM] | IC50 (BTK) [nM] |
| --- | --- | --- |
| C=CC(=O)N1CC[C@]2(C1)C[C@H](n1c(NC(=O)c3ccc(-c4cnco4)s3)nc3c(Cl)cccc31)C2 [Compound 64] | 39.7 | 124 |
| C=CC(=O)N1CC[C@]2(C1)C[C@H](n1c(NC(=O)c3ccc(-c4cnco4)s3)nc3ccc(Cl)cc31)C2 [Compound 65] | 0.42 | 1.99 |
| C=CC(=O)N1CC[C@]2(C1)C[C@@H](n1c(NC(=O)c3ccc(-c4cnco4)s3)nc3c(F)cccc31)C2 [Compound 67] | 19.7 | 99.2 |
| C=CC(=O)N1CC[C@]2(C1)C[C@H](n1c(NC(=O)c3ccc(-c4ccccn4)s3)nc3ccccc31)C2 [Compound 74] | 1.62 | 25.8 |
| C=CC(=O)N1CC[C@]2(C1)C[C@H](n1c(NC(=O)c3ccc(-c4cnco4)s3)nc3ccc(CN4CCOCC4)cc31)C2 [Compound 77] | 0.37 | 0.78 |
| C=CC(=O)N1CC[C@]2(C1)C[C@@H](n1c(NC(=O)c3ccc(-c4cnco4)s3)nc3ccc(CO)cc31)C2 [Compound 78] | 2.34 | 11.7 |
| C=CC(=O)N1CC[C@]2(C1)C[C@@H](n1c(NC(=O)c3ccc(-c4cnco4)s3)nc3ccc(CN4CCCC4)cc31)C2 [Compound 86] | 2.24 | 8.41 |
| C=CC(=O)N1CC[C@]2(C1)C[C@H](n1c(NC(=O)c3ccc(-c4nnc(C)o4)s3)nc3ccccc31)C2 [Compound 94] | 0.82 | 1.38 |
| C=CC(=O)N1CC[C@]2(C1)C[C@H](n1c(NC(=O)c3ccc(-c4ccc(OC)nc4)s3)nc3ccccc31)C2 [Compound 95] | 9.12 | 19.4 |
| C=CC(=O)N1CC[C@]2(C1)C[C@H](n1c(NC(=O)c3ccc(-c4ccnc(OC)c4)s3)nc3ccccc31)C2 [Compound 96] | 0.35 | 1.55 |

Results, then the molecule that gave them:

| IC50 (TXK) [nM] | IC50 (BTK) [nM] | SMILES |
| --- | --- | --- |
| 4.34 | 11.2 | C=CC(=O)N1CC[C@]2(C1)C[C@H](n1c(NC(=O)c3ccc(Oc4ccccc4)nc3)nc3ccccc31)C2 [Compound 66] |
| 0.12 | 1.03 | C=CC(=O)N1CC[C@]2(C1)C[C@H](n1c(NC(=O)c3ccc(-c4ccnn4C)s3)nc3ccccc31)C2 [Compound 75] |
| 2.8 | 22.6 | C=CC(=O)N1CC[C@]2(C1)C[C@H](n1c(NC(=O)c3ccc(-c4cccnn4)s3)nc3ccccc31)C2 [Compound 76] |
| 17 | 251 | C=CC(=O)N1CC[C@]2(C1)C[C@H](n1c(NC(=O)c3cc(C)cs3)nc3ccccc31)C2 [Compound 79] |
| 3.33 | 33.2 | C=CC(=O)N1CC[C@]2(C1)C[C@H](n1c(NC(=O)c3cccs3)nc3ccccc31)C2 [Compound 82] |
| 1.98 | 7.55 | C=CC(=O)N1CC[C@]2(C1)C[C@H](n1c(NC(=O)c3ccc(=O)[nH]c3)nc3ccccc31)C2 [Compound 83] |
| 19.8 | 65.3 | C=CC(=O)N1CC[C@]2(C1)C[C@H](n1c(NC(=O)c3ccn(C)c(=O)c3)nc3ccccc31)C2 [Compound 84] |
| 3.17 | 23.7 | C=CC(=O)N1CC[C@]2(C1)C[C@H](n1c(NC(=O)c3ccc(-n4cccn4)s3)nc3ccccc31)C2 [Compound 89] |
| 0.51 | 5.23 | C=CC(=O)N1CC[C@]2(C1)C[C@H](n1c(NC(=O)c3ccc(-c4cccnc4)s3)nc3ccccc31)C2 [Compound 90] |
| 1.01 | 10.2 | C=CC(=O)N1CC[C@]2(C1)C[C@H](n1c(NC(=O)c3ccc(-c4ccc(=O)[nH]c4)s3)nc3ccccc31)C2 [Compound 99] |
| 0.93 | 9.24 | C=CC(=O)N1CC[C@]2(C1)C[C@H](n1c(NC(=O)c3ccc(C(=O)NCC)s3)nc3ccccc31)C2 [Compound 101] |
| 0.93 | 6.12 | C=CC(=O)N1CC[C@]2(C1)C[C@H](n1c(NC(=O)c3ccc(-c4ccccc4)s3)nc3ccccc31)C2 [Compound 103] |
| 2.16 | 26.2 | C=CC(=O)N1CC[C@]2(C1)C[C@H](n1c(NC(=O)c3ccc(C)s3)nc3ccccc31)C2 [Compound 104] |
